Activity calls are given as the source filed them.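 Rule for the calls: active = signal-decreasing dose-response curve whose fitted half-maximal concentration is at or below twice the highest valid tested dose; inconclusive = flat fit at 30 to 70% signal loss, or poor fit; inactive = the rest.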
Tested on: NIH3T3/HeLa viability, CellTiter-Glo ATP luminescence, 24 h
Assay: cytotoxicity in mammalian cells, dose response, cytotoxicity control for PDI inhibitor project, cell-based, 24 h, luminescence, cherry-picked samples (AID 624285)

## O=C(NCCc1c[nH]c2ccccc12)/C(=C\c1cccnc1)NC(=O)c1ccccc1Br
  AC50: > 70 µM (inactive)

## COc1ccc(C2c3ccc(O)cc3Oc3ncn(CCN4CCOCC4)c(=N)c32)cc1OC (stereo not drawn)
  AC50: > 70 µM (inactive)

## O=C(c1ccc(S(=O)(=O)N2CCCCC2)cc1)N1CCN(Cc2ccc3c(c2)OCO3)CC1
  AC50: > 70 µM (inactive)

## CCN1C[C@]2(COC(=O)c3ccccc3N)CC[C@H](OC)C34[C@@H]5C[C@H]6[C@H](OC)[C@@H]5[C@](O)(C[C@@H]6OC)[C@@](O)([C@H]13)[C@@H](OC)[C@@H]42
  AC50: > 70 µM (inactive)

## CN1CCN(CCOC2c3ccccc3CSc3ccc(Cl)cc32)CC1 (stereo not drawn)
  AC50: 30.5 µM

## CCN1CCN(Cc2ccc(NC(=O)c3cc(NC(=O)c4cc(-c5ccc(OC)cc5)n[nH]4)cc(OC)c3)cc2C(F)(F)F)CC1
  AC50: 6.45 µM

## COc1ccc(C[C@@H]2OC3(C=CC(=O)C=C3)O[C@H]2Cc2ccc(OC)cc2)cc1
  AC50: 1.69 µM

## CCOC(=O)C1=C(c2ccccc2)N=c2s/c(=C\c3cccc(O)c3)c(=O)n2C1c1cccs1 (stereo not drawn)
  AC50: 23 µM

## CCOC(=O)C1(CCOc2ccccc2)CCN(Cc2ccc(O)c(Cl)c2)CC1
  AC50: > 70 µM (inactive)

## C[C@@H]1CN([C@@H](C)CO)C(=O)c2cc(NC(=O)Cc3cn(C)c4ccccc34)ccc2O[C@@H]1CN(C)S(=O)(=O)c1ccc(F)cc1
  AC50: > 70 µM (inactive)

## COc1ccc(C2c3ccc(O)cc3Oc3ncn4nc(-c5cccnc5)nc4c32)cc1OC (stereo not drawn)
  AC50: 30.6 µM

## CC12CCC3c4ccc(O)cc4CCC3C1CCC2=O (stereo not drawn)
  AC50: > 70 µM (inactive)

## CC(C)Sc1nnc([C@H](Cc2c[nH]c3ccccc23)NC(=O)OC(C)(C)C)o1
  AC50: > 70 µM (inactive)

## CN(c1ccccc1)S(=O)(=O)c1cc(C(=O)N2CCN(c3ncccn3)CC2)ccc1Cl
  AC50: > 70 µM (inactive)

## CC[C@]12c3[nH]c4cc(-c5ccco5)ccc4c3CCN1C(=O)[C@@H](CC(=O)NCC13CC4CC(CC(C4)C1)C3)C[C@@H]2C(=O)N1CCN(C(=O)c2ccco2)CC1
  AC50: > 70 µM (inactive)

## O=C(NC(Cc1c[nH]c2ccccc12)C(=O)N/N=C/c1cccnc1)c1cccs1 (stereo not drawn)
  AC50: > 70 µM (inactive)

## CC[C@]12c3[nH]c4cc(-c5ccco5)ccc4c3CCN1C(=O)[C@@H](CC(=O)NCc1ccc(OC)c(OC)c1)C[C@@H]2C(=O)N1CCN(C(=O)c2ccco2)CC1
  AC50: > 70 µM (inactive)

## C[C@H]1CN([C@@H](C)CO)C(=O)Cc2cc(NC(=O)Nc3ccccc3)ccc2O[C@H]1CN(C)Cc1ccccc1
  AC50: > 70 µM (inactive)

## CN(C)CCCN(C(=O)c1ccc(S(=O)(=O)N2CCCc3ccccc32)cc1)c1nc2ccc(F)cc2s1
  AC50: 18.2 µM

## Cc1ccc(NC(=O)CSC(C)C(=O)OCc2cc(=O)oc3cc(O)ccc23)cc1 (stereo not drawn)
  AC50: > 70 µM (inactive)

## Cc1cc(O)cc2c1C1CCC3(C)C(=O)CCC3C1C=C2 (stereo not drawn)
  AC50: > 70 µM (inactive)

## CN1CCN(Cc2nc3ccccc3c(=O)n2Cc2nc(-c3ccc4ccccc4c3)cs2)CC1
  AC50: 7.27 µM

## C[C@@H]1CN([C@@H](C)CO)C(=O)Cc2cc(NC(=O)Nc3ccccc3)ccc2O[C@@H]1CN(C)Cc1ccccc1
  AC50: > 60 µM (inactive)

## NNC(=O)c1cc(-c2ccc(O)cc2)nc2ccc(Br)cc12
  AC50: > 70 µM (inactive)

## O=C(CCC1CCCCC1)NCCN1C2=NC[C@H](Cc3ccc(O)cc3)N2C[C@H]1Cc1ccc(O)cc1
  AC50: > 70 µM (inactive)

## CCOC(=O)C1(CCOc2ccccc2)CCN(Cc2ccccc2O)CC1
  AC50: > 70 µM (inactive)

## O=C(COC(=O)c1ccccc1NC(=O)c1ccco1)NCCC1=CCCCC1
  AC50: > 70 µM (inactive)

## COc1ccc(/C=C2\CN(Cc3ccccc3)C/C(=C\c3ccc(OC)c(O)c3)C2=O)cc1O
  AC50: 6.12 µM

## C[C@]12CC[C@H]3C(=CCc4cc(O)ccc43)[C@@H]1CCC2=O
  AC50: > 70 µM (inactive)

## Cc1cc(C(=O)Cn2nnc3ccccc3c2=O)c(C)n1-c1ccccc1F
  AC50: > 70 µM (inactive)

## COc1ccc(/C=C/C(=O)c2cc(F)ccc2OC(=O)c2ccccc2OC)cc1OC
  AC50: 23.5 µM

## CCSc1nnc([C@H](Cc2c[nH]c3ccccc23)NC(=O)OC(C)(C)C)o1
  AC50: > 70 µM (inactive)

## COc1cccc2c1C(=O)c1c(O)c3c(c(O)c1C2=O)CC(O)(C(C)=NO)CC3OC1CC(N)C(O)C(C)O1 (stereo not drawn)
  AC50: 5.56 µM

## CCOC(=O)Oc1c(OC)cc(C(=O)O[C@@H]2C[C@@H]3CN4CCc5c([nH]c6cc(OC)ccc56)[C@H]4C[C@@H]3[C@H](C(=O)OC)[C@H]2OC)cc1OC
  AC50: 27.3 µM

## COc1ccc(C(=O)c2c(C)c3cc(C)ccc3n2CC(O)CN2CCOCC2)cc1 (stereo not drawn)
  AC50: > 70 µM (inactive)

## C[C@]12CC[C@@H]3c4ccc(O)cc4C(=O)C[C@H]3[C@@H]1CC[C@@H]2O
  AC50: > 70 µM (inactive)

## CCOc1ccc(CCN2C(=O)C(=O)N([C@@H](CC(C)C)CN3CCC[C@@H]3CN3C(=O)C(=O)NC[C@@H]3Cc3ccccc3)C[C@@H]2Cc2ccc(O)cc2)cc1
  AC50: 38.1 µM

## Cc1sc(NC(=O)CCl)c(C(=O)c2ccccc2)c1C
  AC50: 15.4 µM

## Cc1nnc(SCc2cc(=O)oc3cc(O)ccc23)n1Cc1ccccc1
  AC50: > 70 µM (inactive)

## C=CC[C@H](CC(=O)N(CCO)Cc1ccccc1)C(=O)N[C@H](COC(=O)[C@@H](CC=C)Cc1ccc(F)cc1)Cc1c[nH]c2ccccc12
  AC50: 30.8 µM

## COc1ccc(C[C@@H]2CN3C(=NC[C@@H]3Cc3ccc(O)cc3)N2C[C@H](C)NC(=O)CCC2CCCCC2)cc1
  AC50: 18.8 µM

## Cn1cnnc1Sc1ccc(/C=C/C(=O)c2ccc(O)cc2)cc1[N+](=O)[O-]
  AC50: 12.3 µM

## O=C(Nc1nc2ccccc2s1)c1cccc(S(=O)(=O)N2CCc3ccccc32)c1
  AC50: > 70 µM (inactive)

## CCOC(=O)C1(CCOc2ccccc2)CCN(Cc2ccc(O)cc2)CC1
  AC50: > 70 µM (inactive)

## CCOC(=O)C1(CCOc2ccccc2)CCN(Cc2cccc(O)c2)CC1
  AC50: > 70 µM (inactive)

## CC(=O)Oc1ccccc1C(=O)C=Cc1cccc([N+](=O)[O-])c1
  AC50: 5.89 µM

## Cc1ccc(N(Cc2ccccc2)C(=O)c2cccc(S(=O)(=O)N3CC(C)OC(C)C3)c2)cc1 (stereo not drawn)
  AC50: > 70 µM (inactive)

## O=C(/C=C/c1ccc(N2CCCCC2)c([N+](=O)[O-])c1)c1ccc(O)cc1
  AC50: 12 µM

## COc1cc2cc(C(=O)N3CC(COS(C)(=O)=O)c4ccc(O)cc43)[nH]c2c(OC)c1OC (stereo not drawn)
  AC50: 0.0396 µM

## O=C(Nc1nccs1)c1ccc(-c2ccccc2[N+](=O)[O-])o1
  AC50: > 70 µM (inactive)

## COCCN(CC(=O)Nc1ccccc1C(F)(F)F)C(=O)/C=C/c1cc(Cl)c2c(c1)OCCO2
  AC50: > 70 µM (inactive)

## O=C(NCc1ccccc1CN1CCCC1)c1cc2ccccc2o1
  AC50: > 70 µM (inactive)

## COc1c(Br)cc(C(N)=O)cc1OCc1ccccc1
  AC50: > 70 µM (inactive)
